According to US8192962B2, “Processes for detecting toxic substances” (Daikin Industries, Ltd., priority 2001, dated 2012):

System: Metabolism protein genes
Assay: DNA chip mRNA expression in yeast, metabolism protein genes (Table 7)
Assay type: cell-based, Saccharomyces cerevisiae S288C
Procedure, shortened: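 Expression change after 2 h toxicant exposure (growth-inhibiting, sub-lethal) of log-phase S. cerevisiae S288C at 25° C. Oligo-dT-purified mRNA was labeled with Cy3-dUTP or Cy5-dUTP and hybridized >12 h at 65° C. to a genome-wide chip; ratio of scanned fluorescence to control.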

[Cl][Cd][Cl] [(2), CdCl2]
The level of expressed mRNA in the presence of chemical substance/The level of expressed mRNA in the absence of chemical substance (yeast gene YJR155W): 3.7 | The level of expressed mRNA in the presence of chemical substance/The level of expressed mRNA in the absence of chemical substance (yeast gene YKL035W): 0.9 | level of expressed mRNA in the presence/in the absence of chemical substance (yeast gene YKL060C): 0.8 | The level of expressed mRNA in the presence of chemical substance/The level of expressed mRNA in the absence of chemical substance (yeast gene YKL091C): 1.3 | The level of expressed mRNA in the presence of chemical substance/The level of expressed mRNA in the absence of chemical substance (yeast gene YKL104C): 1.0 | level of expressed mRNA in the presence/in the absence of chemical substance (yeast gene YKL148C): 0.8 | The level of expressed mRNA in the presence of chemical substance/The level of expressed mRNA in the absence of chemical substance (yeast gene YKL152C): 1.3 | level of expressed mRNA in the presence/in the absence of chemical substance (yeast gene YKL157W): 1.0 | The level of expressed mRNA in the presence of chemical substance/The level of expressed mRNA in the absence of chemical substance (yeast gene YKL213C): 0.8 | The level of expressed mRNA in the presence of chemical substance/The level of expressed mRNA in the absence of chemical substance (yeast gene YKL215C): 1.1 | level of expressed mRNA in the presence/in the absence of chemical substance (yeast gene YKR034W): 1.5 | The level of expressed mRNA in the presence of chemical substance/The level of expressed mRNA in the absence of chemical substance (yeast gene YLL058W): 3.8 | level of expressed mRNA in the presence/in the absence of chemical substance (yeast gene YLR006C): 0.7 | level of expressed mRNA in the presence/in the absence of chemical substance (yeast gene YLR044C): 0.6 | level of expressed mRNA in the presence/in the absence of chemical substance (yeast gene YLR056W): 0.6 | level of expressed mRNA in the presence/in the absence of chemical substance (yeast gene YLR058C): 0.8 | level of expressed mRNA in the presence/in the absence of chemical substance (yeast gene YLR081W): 0.8 | level of expressed mRNA in the presence/in the absence of chemical substance (yeast gene YLR089C): 1.2 | The level of expressed mRNA in the presence of chemical substance/The level of expressed mRNA in the absence of chemical substance (yeast gene YLR180W): 1.4 | The level of expressed mRNA in the presence of chemical substance/The level of expressed mRNA in the absence of chemical substance (yeast gene YLR273C): 1.0 | level of expressed mRNA in the presence/in the absence of chemical substance (yeast gene YLR284C): 1.0 | The level of expressed mRNA in the presence of chemical substance/The level of expressed mRNA in the absence of chemical substance (yeast gene YLR299W): 1.9 | The level of expressed mRNA in the presence of chemical substance/The level of expressed mRNA in the absence of chemical substance (yeast gene YLR300W): 0.8 | level of expressed mRNA in the presence/in the absence of chemical substance (yeast gene YLR304C): 0.6 | The level of expressed mRNA in the presence of chemical substance/The level of expressed mRNA in the absence of chemical substance (yeast gene YLR307W): 0.4 | The level of expressed mRNA in the presence of chemical substance/The level of expressed mRNA in the absence of chemical substance (yeast gene YLR348C): 4.5 | level of expressed mRNA in the presence/in the absence of chemical substance (yeast gene YLR354C): 2.5 | level of expressed mRNA in the presence/in the absence of chemical substance (yeast gene YLR372W): 0.3 | level of expressed mRNA in the presence/in the absence of chemical substance (yeast gene YML022W): 0.6 | The level of expressed mRNA in the presence of chemical substance/The level of expressed mRNA in the absence of chemical substance (yeast gene YML054C): 1.8 | The level of expressed mRNA in the presence of chemical substance/The level of expressed mRNA in the absence of chemical substance (yeast gene YML070W): 1.7 | The level of expressed mRNA in the presence of chemical substance/The level of expressed mRNA in the absence of chemical substance (yeast gene YML100W): 2.7 | The level of expressed mRNA in the presence of chemical substance/The level of expressed mRNA in the absence of chemical substance (yeast gene YMR008C): 0.9 | level of expressed mRNA in the presence/in the absence of chemical substance (yeast gene YMR011W): 1.0 | level of expressed mRNA in the presence/in the absence of chemical substance (yeast gene YMR015C): 0.7 | The level of expressed mRNA in the presence of chemical substance/The level of expressed mRNA in the absence of chemical substance (yeast gene YMR020W): 1.0 | level of expressed mRNA in the presence/in the absence of chemical substance (yeast gene YMR083W): 1.7 | The level of expressed mRNA in the presence of chemical substance/The level of expressed mRNA in the absence of chemical substance (yeast gene YMR105C): 3.0 | The level of expressed mRNA in the presence of chemical substance/The level of expressed mRNA in the absence of chemical substance (yeast gene YMR189W): 0.8 | level of expressed mRNA in the presence/in the absence of chemical substance (yeast gene YMR205C): 0.7 | level of expressed mRNA in the presence/in the absence of chemical substance (yeast gene YMR261C): 1.6 | The level of expressed mRNA in the presence of chemical substance/The level of expressed mRNA in the absence of chemical substance (yeast gene YMR271C): 1.6 | The level of expressed mRNA in the presence of chemical substance/The level of expressed mRNA in the absence of chemical substance (yeast gene YMR296C): 0.7 | level of expressed mRNA in the presence/in the absence of chemical substance (yeast gene YMR323W): 1.1 | The level of expressed mRNA in the presence of chemical substance/The level of expressed mRNA in the absence of chemical substance (yeast gene YNL012W): 1.3 | level of expressed mRNA in the presence/in the absence of chemical substance (yeast gene YNL025C): 1.4 | The level of expressed mRNA in the presence of chemical substance/The level of expressed mRNA in the absence of chemical substance (yeast gene YNL045W): 1.3 | The level of expressed mRNA in the presence of chemical substance/The level of expressed mRNA in the absence of chemical substance (yeast gene YNL104C): 1.3 | The level of expressed mRNA in the presence of chemical substance/The level of expressed mRNA in the absence of chemical substance (yeast gene YNL106C): 1.4 | The level of expressed mRNA in the presence of chemical substance/The level of expressed mRNA in the absence of chemical substance (yeast gene YNL169C): 1.4 | level of expressed mRNA in the presence/in the absence of chemical substance (yeast gene YNL192W): 1.2 | The level of expressed mRNA in the presence of chemical substance/The level of expressed mRNA in the absence of chemical substance (yeast gene YNL231C): 0.8 | The level of expressed mRNA in the presence of chemical substance/The level of expressed mRNA in the absence of chemical substance (yeast gene YNL322C): 0.9 | The level of expressed mRNA in the presence of chemical substance/The level of expressed mRNA in the absence of chemical substance (yeast gene YNL331C): 3.6 | The level of expressed mRNA in the presence of chemical substance/The level of expressed mRNA in the absence of chemical substance (yeast gene YNL332W): 1.5 | The level of expressed mRNA in the presence of chemical substance/The level of expressed mRNA in the absence of chemical substance (yeast gene YNR019W): 1.3 | The level of expressed mRNA in the presence of chemical substance/The level of expressed mRNA in the absence of chemical substance (yeast gene YNR033W): 0.8 | The level of expressed mRNA in the presence of chemical substance/The level of expressed mRNA in the absence of chemical substance (yeast gene YNR059W): 0.9 | The level of expressed mRNA in the presence of chemical substance/The level of expressed mRNA in the absence of chemical substance (yeast gene YOL058W): 0.5 | level of expressed mRNA in the presence/in the absence of chemical substance (yeast gene YOL086C): 0.5 | level of expressed mRNA in the presence/in the absence of chemical substance (yeast gene YOL108C): 1.5 | level of expressed mRNA in the presence/in the absence of chemical substance (yeast gene YOL116W): 1.0 | The level of expressed mRNA in the presence of chemical substance/The level of expressed mRNA in the absence of chemical substance (yeast gene YOL126C): 0.8 | The level of expressed mRNA in the presence of chemical substance/The level of expressed mRNA in the absence of chemical substance (yeast gene YOL153C): 1.2 | level of expressed mRNA in the presence/in the absence of chemical substance (yeast gene YOL156W): 0.7 | The level of expressed mRNA in the presence of chemical substance/The level of expressed mRNA in the absence of chemical substance (yeast gene YOL165C): 4.5 | level of expressed mRNA in the presence/in the absence of chemical substance (yeast gene YOR002W): 1.1 | level of expressed mRNA in the presence/in the absence of chemical substance (yeast gene YOR085W): 0.8 | The level of expressed mRNA in the presence of chemical substance/The level of expressed mRNA in the absence of chemical substance (yeast gene YOR099W): 1.3 | level of expressed mRNA in the presence/in the absence of chemical substance (yeast gene YOR103C): 0.8 | level of expressed mRNA in the presence/in the absence of chemical substance (yeast gene YOR108W): 0.9 | level of expressed mRNA in the presence/in the absence of chemical substance (yeast gene YOR128C): 0.7 | The level of expressed mRNA in the presence of chemical substance/The level of expressed mRNA in the absence of chemical substance (yeast gene YOR130C): 1.7 | level of expressed mRNA in the presence/in the absence of chemical substance (yeast gene YOR142W): 1.2 | level of expressed mRNA in the presence/in the absence of chemical substance (yeast gene YOR176W): 2.6 | level of expressed mRNA in the presence/in the absence of chemical substance (yeast gene YOR178C): 1.3 | level of expressed mRNA in the presence/in the absence of chemical substance (yeast gene YOR251C): 1.0 | The level of expressed mRNA in the presence of chemical substance/The level of expressed mRNA in the absence of chemical substance (yeast gene YOR336W): 1.4 | The level of expressed mRNA in the presence of chemical substance/The level of expressed mRNA in the absence of chemical substance (yeast gene YOR347C): 0.9 | level of expressed mRNA in the presence/in the absence of chemical substance (yeast gene YOR348C): 0.7 | The level of expressed mRNA in the presence of chemical substance/The level of expressed mRNA in the absence of chemical substance (yeast gene YPL017C): 2.5 | level of expressed mRNA in the presence/in the absence of chemical substance (yeast gene YPL028W): 0.9 | level of expressed mRNA in the presence/in the absence of chemical substance (yeast gene YPL057C): 1.1 | level of expressed mRNA in the presence/in the absence of chemical substance (yeast gene YPL135W): 1.2 | level of expressed mRNA in the presence/in the absence of chemical substance (yeast gene YPL148C): 0.8 | The level of expressed mRNA in the presence of chemical substance/The level of expressed mRNA in the absence of chemical substance (yeast gene YPR026W): 1.2 | level of expressed mRNA in the presence/in the absence of chemical substance (yeast gene YPR113W): 0.8 | level of expressed mRNA in the presence/in the absence of chemical substance (yeast gene YPR165W): 0.7 | The level of expressed mRNA in the presence of chemical substance/The level of expressed mRNA in the absence of chemical substance (yeast gene YPR167C): 5.8 | level of expressed mRNA in the presence/in the absence of chemical substance (yeast gene YPR183W): 1.5
